Values joined by “and” are separate entries in the source; they are usually repeats but may differ in a detail not shown here. Equal entries are not always repeated.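 Dose response: 5 concentrations. Exposure: 48 h. Format: 96-well plates. Endpoint: linear interpolation; highest concentration if not reached. At the GI50, growth is halved. Definition used: TGI = concentration required for complete inhibition of growth.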
Key:
Test in all cases: DTP human tumour cell line panel, 48 h
RXF 393 renal = tested on: RXF 393 renal
SR leukemia = tested on: SR leukemia
UACC-62 melanoma = tested on: UACC-62 melanoma
SF-268 CNS = tested on: SF-268 CNS
SK-OV-3 ovarian = tested on: SK-OV-3 ovarian
HS 578T breast = tested on: HS 578T breast
DU-145 prostate = tested on: DU-145 prostate
SK-MEL-2 melanoma = tested on: SK-MEL-2 melanoma
EKVX NSCLC = tested on: EKVX NSCLC
MDA-MB-435 = tested on: MDA-MB-435

SMILES | GI50 (RXF 393 renal) [µM] | TGI (RXF 393 renal) [µM] | GI50 (SR leukemia) [µM] | TGI (SR leukemia) | GI50 (UACC-62 melanoma) [µM] | TGI (UACC-62 melanoma) [µM] | GI50 (SF-268 CNS) [µM] | TGI (SF-268 CNS) | GI50 (SK-OV-3 ovarian) [µM] | TGI (SK-OV-3 ovarian) | GI50 (HS 578T breast) [µM] | TGI (HS 578T breast) [µM] | GI50 (DU-145 prostate) [µM] | TGI (DU-145 prostate) | GI50 (SK-MEL-2 melanoma) [µM] | TGI (SK-MEL-2 melanoma) | GI50 (EKVX NSCLC) | TGI (EKVX NSCLC) [µM] | GI50 (MDA-MB-435) | TGI (MDA-MB-435)
C/C(=N/NC(=S)Nc1ccccc1)c1nc2ccc(Cl)cc2[nH]1 | 0.165 | 0.783 | 0.0881 | 1.23 µM | 0.126 | 0.425 | 0.0747 | 0.858 µM | 0.246 | 1.39 µM | 0.57 | 1.96 | 0.0821 | 0.645 µM | 0.252 | 0.901 µM | 0.1 µM | 0.959 |  | 
COc1ccc(-c2ccc(CC(=O)O)cc2)cc1OC |  |  |  | > 100 µM |  | > 100 |  | > 100 µM |  | > 100 µM |  |  |  |  |  | > 100 µM |  | > 100 |  | 
O=C1NC(O)n2c(=O)[nH]c(=O)n21 (stereo unspecified) |  | > 100 |  | > 100 µM |  | > 100 |  | > 100 µM |  | > 100 µM |  |  |  |  |  | > 100 µM |  | > 100 |  | 
COC(=O)C1C=CCC2CCCCC21N1CCCC1 (stereo unspecified) |  | > 100 |  | > 100 µM |  | > 100 |  | > 100 µM |  | > 100 µM |  |  |  |  |  |  |  | > 100 |  | 
OCC(O)C(O)C(O)C(/C=N\Nc1ncnc2c(Br)cc(Br)cc12)=N/Nc1ncnc2c(Br)cc(Br)cc12 (stereo unspecified) |  |  |  | 17.3 µM and > 100 µM |  |  |  | 11.9 µM and > 100 µM |  | 10 µM and > 100 µM |  | > 100 |  | 14.7 µM and > 100 µM |  | 17.6 µM and > 100 µM | 1.88 µM and 4.49 µM |  | 5.24 µM and 12.6 µM | 21.7 µM and > 100 µM
O=C1c2cccc3cccc(c23)C(=O)N1CCCCCN1CCN(CCN=c2cc3n(-c4ccc(Cl)cc4)c4ccccc4nc-3cc2Nc2ccc(Cl)cc2)CC1 | 11.2 | > 50 | 7.54 | 25.4 µM | 7.5 | 20.5 | 23.1 | > 50 µM | > 50 | > 50 µM | 36.8 | > 50 | 38.3 | > 50 µM |  |  | 14.5 µM | > 50 | 9.21 µM | 21.4 µM
COc1cc2c(cc1C)NC(=O)/C2=C/c1ccnc2ccccc12 |  |  | 8.47 | > 50 µM | 13.1 | > 50 | 18 | > 50 µM | 12.6 | > 50 µM | 40.1 | > 50 | 29.1 | > 50 µM | 26.3 | > 50 µM | 25.5 µM | > 50 | 11.4 µM | > 50 µM
Cc1c(C)c([N+](=O)[O-])c2c(c1N)C(=O)c1ccccc1C2=O |  | > 100 |  | > 100 µM |  | > 100 |  | > 100 µM |  | > 100 µM |  |  |  |  |  | > 100 µM |  | > 100 |  | 
O=c1c(Cc2ccccc2)c(O)cc2n1CCC2 |  | > 100 |  | > 100 µM |  | > 100 |  | > 100 µM |  | > 100 µM |  |  |  |  |  |  |  | > 100 |  | 
COC(=O)C(C(=O)C(=O)Nc1c(C)cccc1C(C)(C)C)c1nc2ccc(Cl)cc2[nH]c1=O (stereo unspecified) |  | > 100 |  | > 100 µM |  | > 100 |  | > 100 µM |  | > 100 µM |  | > 100 |  |  |  | > 100 µM |  | > 100 |  | > 100 µM
CCOc1ccc(NC(=O)/C(CC(=O)c2c[n+](=O)c3ccccc3n2[O-])=N\OCCCc2ccccc2)cc1 |  | > 100 |  | > 100 µM |  | > 100 |  | > 100 µM |  | > 100 µM |  |  |  |  |  | > 100 µM |  | > 100 |  | 
